Results on four sequences are retold here after patent US20070128217A1 (priority 2003, published 2007).

Assay [1] concerns antibodies in sera from SARS patients (sera 1a, 1b, 2, 6, 37, 62, London, SARS-yellow, SARS-green). Type of assay: binding, human. Set-up: Binding of serum 6 to linear peptides of protein X1 of SARS-CoV Urbani / Binding of serum 37 to linear peptides of protein X1 of SARS-CoV Urbani / Binding of serum 6 to looped/cyclic peptide (PEPSCAN-ELISA) / Binding of serum 37 to looped/cyclic peptide (PEPSCAN-ELISA) / Binding of serum 37 to looped/cyclic peptides of protein X1 of SARS-CoV Urbani / Binding of serum 6 to linear peptides of protein X2 / Binding of serum 37 to linear peptides of protein X2 / Binding of serum 37 to looped/cyclic peptides of protein X2 of SARS-CoV Urbani / Binding of serum 6 to linear peptides of protein M of SARS-CoV Urbani / Binding of serum 37 to linear peptides of protein M of SARS-CoV Urbani / Binding of serum 6 to looped/cyclic peptides of protein M of SARS-CoV Urbani / Binding of serum 37 to looped/cyclic peptides of protein M of SARS-CoV Urbani / Binding of serum 6 to linear peptides of protein X3 of SARS-CoV Urbani / Binding of serum 37 to linear peptides of protein X3 of SARS-CoV Urbani / Binding of serum 37 to looped/cyclic peptides of protein X3 of SARS-CoV Urbani / Binding of serum 6 to linear peptides of protein X4 of SARS-CoV Urbani / Binding of serum 37 to linear peptides of protein X4 of SARS-CoV Urbani / Binding of serum 37 to looped/cyclic peptides of protein X4 of SARS-CoV Urbani / Binding of serum 6 to linear peptides of protein X5 of SARS-CoV Urbani / Binding of serum 37 to linear peptides of protein X5 of SARS-CoV Urbani / Binding of serum 37 to looped/cyclic peptides of protein X5 of SARS-CoV Urbani / Binding of serum 6 to linear peptides of protein N of SARS-CoV Urbani / Binding of serum 37 to linear peptides of protein N of SARS-CoV Urbani / Binding of serum 6 to linear peptide (PEPSCAN-ELISA) / Binding of serum 1a to looped/cyclic peptides of protein N of SARS-CoV Urbani / Binding of serum 1b to looped/cyclic peptides of protein N of SARS-CoV Urbani / Binding of serum 2 to looped/cyclic peptides of protein N of SARS-CoV Urbani / Binding of serum 6 to looped/cyclic peptides of protein N of SARS-CoV Urbani / Binding of serum 37 to looped/cyclic peptides of protein N of SARS-CoV Urbani / Binding of serum 62 to looped/cyclic peptides of protein N of SARS-CoV Urbani / Binding of serum London to looped/cyclic peptides of protein N of SARS-CoV Urbani / Binding of serum SARS-green to looped/cyclic peptides of protein N of SARS-CoV Urbani: unit not given here.

The subject of assay [2] is control sera (pooled serum of ten healthy LUMC hospital workers; commercial negative donor pooled serum from the Dutch bloodbank). It is filed as binding, human. The arrangement: Binding of Control serum LUMC to linear peptides / Binding of Control serum Blood-bank to linear peptides / Binding of Control serum LUMC to looped peptides / Binding of Control Serum Blood-Bank to Looped peptides / Binding of Control serum LUMC to linear peptides of the protein M of SARS-CoV Urbani / Binding of Control serum Blood-bank to linear peptides of the protein M of SARS-CoV Urbani / Binding of Control serum LUMC to looped peptides of the protein M of SARS-CoV Urbani / Binding of Control Serum Blood-Bank to Looped peptides of the protein M of SARS-CoV Urbani: unit not given here.

Assay [3] relates to rabbit serum obtained by immunizing a rabbit with the SARS-CoV strain Frankfurt 1. Type of assay: binding. Set-up: Binding of a rabbit serum to linear peptides / Binding of a rabbit serum to looped peptides / Rabbit serum linear peptides / Rabbit serum looped peptides / Binding of a rabbit serum to linear peptides of protein N of SARS-CoV Urbani (Rabbit serum linear peptides) / Binding of a rabbit serum to looped/cyclic peptides of protein N of SARS-CoV Urbani (Rabbit serum looped peptides): unit not given here.

Consider VQTCTPNVTINCQDP, for which, in assay [1], the “Binding of serum 1a to linear peptides of protein X5 of SARS-CoV Urbani” value was found to be 0.7, the “Binding of serum 1a to looped/cyclic peptides of protein X5 of SARS-CoV Urbani” value came to 0.6, the “Binding of serum 1b to linear peptides of protein X5 of SARS-CoV Urbani” value was 0.8 and the “Binding of serum 1b to looped/cyclic peptides of protein X5 of SARS-CoV Urbani” value turned out to be 0.5. In assay [1], the “Binding of serum 2 to linear peptides of protein X5 of SARS-CoV Urbani” value turned out to be 0.7, the “Binding of serum 2 to looped/cyclic peptides of protein X5 of SARS-CoV Urbani” value turned out to be 0.7, the “Binding of serum 6 to linear peptides of protein X5 of SARS-CoV Urbani” value stood at 0.8 and the “Binding of serum 6 to looped/cyclic peptides of protein X5 of SARS-CoV Urbani” value is recorded as 0.2. For the same sequence, in assay [1], the “Binding of serum 37 to linear peptides of protein X5 of SARS-CoV Urbani” value was 0.7, the “Binding of serum 37 to looped/cyclic peptides of protein X5 of SARS-CoV Urbani” value was 0.6, the “Binding of serum 62 to linear peptides of protein X5 of SARS-CoV Urbani” value worked out at 0.8 and the “Binding of serum 62 to looped/cyclic peptides of protein X5 of SARS-CoV Urbani” value was found to be 0.6. In assay [1], the “Binding of serum London to linear peptides of protein X5 of SARS-CoV Urbani” value is 0.8, the “Binding of serum London to looped/cyclic peptides of protein X5 of SARS-CoV Urbani” value amounted to 0.3, the “Binding of serum SARS-green to linear peptides of protein X5 of SARS-CoV Urbani” value is given as 0.7 and the “Binding of serum SARS-green to looped/cyclic peptides of protein X5 of SARS-CoV Urbani” value is given as 0.3. Besides, in assay [1], the “Binding of serum SARS-yellow to linear peptides of protein X5 of SARS-CoV Urbani” value turned out to be 0.3 and the “Binding of serum SARS-yellow to looped/cyclic peptides of protein X5 of SARS-CoV Urbani” value turned out to be 0.3. For the same sequence, in assay [2], the “Binding of Control Serum Blood-Bank to Looped peptides” value was determined as 0.6, the “Binding of Control serum Blood-bank to linear peptides” value is given as 0.6, the “Binding of Control serum LUMC to linear peptides” value was determined as 0.5 and the “Binding of Control serum LUMC to looped peptides” value is reported as 0.4. In addition, in assay [3], the “Rabbit serum linear peptides” value is listed as 0.5 and the “Rabbit serum looped peptides” value was determined as 0.4.
With VSPKLFIRQEEVQQE, in assay [1], the “Binding of serum 1a to linear peptides of protein X4 of SARS-CoV Urbani” value turned out to be 0.7, the “Binding of serum 1a to looped/cyclic peptides of protein X4 of SARS-CoV Urbani” value came to 0.6, the “Binding of serum 1b to linear peptides of protein X4 of SARS-CoV Urbani” value worked out at 0.5 and the “Binding of serum 1b to looped/cyclic peptides of protein X4 of SARS-CoV Urbani” value is listed as 1.0. Further, in assay [1], the “Binding of serum 2 to linear peptides of protein X4 of SARS-CoV Urbani” value was 0.3, the “Binding of serum 2 to looped/cyclic peptides of protein X4 of SARS-CoV Urbani” value was found to be 0.8, the “Binding of serum 6 to linear peptides of protein X4 of SARS-CoV Urbani” value is on record as 0.3 and the “Binding of serum 6 to looped/cyclic peptides of protein X4 of SARS-CoV Urbani” value is listed as 0.4. Besides, in assay [1], the “Binding of serum 37 to linear peptides of protein X4 of SARS-CoV Urbani” value is 0.7, the “Binding of serum 37 to looped/cyclic peptides of protein X4 of SARS-CoV Urbani” value was found to be 0.9, the “Binding of serum 62 to linear peptides of protein X4 of SARS-CoV Urbani” value is on record as 0.7 and the “Binding of serum 62 to looped/cyclic peptides of protein X4 of SARS-CoV Urbani” value is recorded as 0.8. Further, in assay [1], the “Binding of serum London to linear peptides of protein X4 of SARS-CoV Urbani” value came to 0.8, the “Binding of serum London to looped/cyclic peptides of protein X4 of SARS-CoV Urbani” value is on record as 0.6, the “Binding of serum SARS-green to linear peptides of protein X4 of SARS-CoV Urbani” value is 0.6 and the “Binding of serum SARS-green to looped/cyclic peptides of protein X4 of SARS-CoV Urbani” value turned out to be 1.2. Further, in assay [1], the “Binding of serum SARS-yellow to linear peptides of protein X4 of SARS-CoV Urbani” value is listed as 0.3 and the “Binding of serum SARS-yellow to looped/cyclic peptides of protein X4 of SARS-CoV Urbani” value came to 0.5. In assay [2], the “Binding of Control Serum Blood-Bank to Looped peptides” value is on record as 0.4, the “Binding of Control serum Blood-bank to linear peptides” value amounted to 0.5, the “Binding of Control serum LUMC to linear peptides” value is 0.4 and the “Binding of Control serum LUMC to looped peptides” value worked out at 0.7. In assay [3], the “Rabbit serum linear peptides” value is given as 0.4 and the “Rabbit serum looped peptides” value is reported as 0.3.
In the case of VSTNLCTHSFRKKQV, in assay [1], the “Binding of serum 1a to looped/cyclic peptides of protein X2 of SARS-CoV Urbani” value is 0.5, the “Binding of serum 1b to looped/cyclic peptides of protein X2 of SARS-CoV Urbani” value is 0.3, the “Binding of serum 2 to looped/cyclic peptides of protein X2 of SARS-CoV Urbani” value is recorded as 0.6 and the “Binding of serum 6 to looped/cyclic peptides of protein X2 of SARS-CoV Urbani” value is 0.5. Moreover, in assay [1], the “Binding of serum 37 to looped/cyclic peptides of protein X2 of SARS-CoV Urbani” value came to 0.5, the “Binding of serum 62 to looped/cyclic peptides of protein X2 of SARS-CoV Urbani” value is 0.6, the “Binding of serum London to looped/cyclic peptides of protein X2 of SARS-CoV Urbani” value stood at 0.1 and the “Binding of serum SARS-green to looped/cyclic peptides of protein X2 of SARS-CoV Urbani” value is recorded as 0.3. Also, in assay [1], the “Binding of serum SARS-yellow to looped/cyclic peptides of protein X2 of SARS-CoV Urbani” value came out at 0.4; the “Recognition of the peptide by sera of SARS-CoV infected individuals, and form (linear, looped/cyclic) in which it is recognized” value is on record as “recognized in linear form”. Moreover, in assay [2], the “Binding of Control Serum Blood-Bank to Looped peptides” value came out at 0.5, the “Binding of Control serum Blood-bank to linear peptides” value is reported as 0.8, the “Binding of Control serum LUMC to linear peptides” value was determined as 0.6 and the “Binding of Control serum LUMC to looped peptides” value is reported as 0.7. Moreover, in assay [3], the “Binding of a rabbit serum to linear peptides” value worked out at 0.3 and the “Binding of a rabbit serum to looped peptides” value came to 0.2.
For VTDTIVVTEGDGIST, in assay [1], the “Binding of serum 1a to linear peptides of protein X1 of SARS-CoV Urbani” value is 0.6, the “Binding of serum 1a to looped/cyclic peptides of protein X1 of SARS-CoV Urbani” value came out at 0.4, the “Binding of serum 1b to linear peptides of protein X1 of SARS-CoV Urbani” value was determined as 0.5 and the “Binding of serum 1b to looped/cyclic peptides of protein X1 of SARS-CoV Urbani” value was 0.3. Moreover, in assay [1], the “Binding of serum 2 to linear peptides of protein X1 of SARS-CoV Urbani” value is given as 0.3, the “Binding of serum 2 to looped/cyclic peptides of protein X1 of SARS-CoV Urbani” value is reported as 0.2, the “Binding of serum 6 to linear peptides of protein X1 of SARS-CoV Urbani” value is 0.4 and the “Binding of serum 6 to looped/cyclic peptides of protein X1 of SARS-CoV Urbani” value is 0.1. Further, in assay [1], the “Binding of serum 37 to linear peptides of protein X1 of SARS-CoV Urbani” value worked out at 0.5, the “Binding of serum 37 to looped/cyclic peptides of protein X1 of SARS-CoV Urbani” value was 0.4, the “Binding of serum 62 to linear peptides of protein X1 of SARS-CoV Urbani” value worked out at 0.4 and the “Binding of serum 62 to looped/cyclic peptides of protein X1 of SARS-CoV Urbani” value is 0.4. Also, in assay [1], the “Binding of serum London to linear peptides of protein X1 of SARS-CoV Urbani” value is recorded as 0.2, the “Binding of serum London to looped/cyclic peptides of protein X1 of SARS-CoV Urbani” value turned out to be 0.2, the “Binding of serum SARS-green to linear peptides of protein X1 of SARS-CoV Urbani” value came out at 0.1 and the “Binding of serum SARS-green to looped/cyclic peptides of protein X1 of SARS-CoV Urbani” value amounted to 0.2. Besides, in assay [1], the “Binding of serum SARS-yellow to linear peptides of protein X1 of SARS-CoV Urbani” value amounted to 0.3 and the “Binding of serum SARS-yellow to looped/cyclic peptides of protein X1 of SARS-CoV Urbani” value is listed as 0.5. In assay [2], the “Binding of Control Serum Blood-Bank to Looped peptides” value was found to be 0.4, the “Binding of Control serum Blood-bank to linear peptides” value worked out at 0.4, the “Binding of Control serum LUMC to linear peptides” value turned out to be 0.4 and the “Binding of Control serum LUMC to looped peptides” value was 0.4. For the same sequence, in assay [3], the “Binding of a rabbit serum to linear peptides” value is recorded as 0.1 and the “Binding of a rabbit serum to looped peptides” value is 0.5.
